Assay results: patent US20250145589A1, “PYRIDINE DERIVATIVE AND USE THEREOF” (SICHUAN HUIYU PHARMACEUTICAL CO., LTD., priority 2021, published 2025)
Where two headings read alike, the source gives them in different places.

Tests used:
PI3Kα = PI3Kα (Homo sapiens (Human), UniProt P42336); experiment: Inhibition of PI3Kα efficacy assay (ADP-Glo kinase assay); format: biochemical; settings: read-out: PI3Kα inhibitory activity (IC50)
How it was run: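 ADP-Glo luminescent detection of ADP from PI3Kα acting on PI substrate with ATP, 60 min at RT; compounds in 8-point five-fold serial dilution from 2 mM DMSO stock. IC50 from four-parameter variable-slope fit.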

PI3Kδ = PI3Kδ (Homo sapiens (Human), UniProt O00329); experiment: Inhibition of PI3Kδ efficacy assay (ADP-Glo kinase assay); format: biochemical; settings: read-out: PI3Kδ inhibitory activity (IC50)
Sequence of PI3Kδ (O00329 whole entry): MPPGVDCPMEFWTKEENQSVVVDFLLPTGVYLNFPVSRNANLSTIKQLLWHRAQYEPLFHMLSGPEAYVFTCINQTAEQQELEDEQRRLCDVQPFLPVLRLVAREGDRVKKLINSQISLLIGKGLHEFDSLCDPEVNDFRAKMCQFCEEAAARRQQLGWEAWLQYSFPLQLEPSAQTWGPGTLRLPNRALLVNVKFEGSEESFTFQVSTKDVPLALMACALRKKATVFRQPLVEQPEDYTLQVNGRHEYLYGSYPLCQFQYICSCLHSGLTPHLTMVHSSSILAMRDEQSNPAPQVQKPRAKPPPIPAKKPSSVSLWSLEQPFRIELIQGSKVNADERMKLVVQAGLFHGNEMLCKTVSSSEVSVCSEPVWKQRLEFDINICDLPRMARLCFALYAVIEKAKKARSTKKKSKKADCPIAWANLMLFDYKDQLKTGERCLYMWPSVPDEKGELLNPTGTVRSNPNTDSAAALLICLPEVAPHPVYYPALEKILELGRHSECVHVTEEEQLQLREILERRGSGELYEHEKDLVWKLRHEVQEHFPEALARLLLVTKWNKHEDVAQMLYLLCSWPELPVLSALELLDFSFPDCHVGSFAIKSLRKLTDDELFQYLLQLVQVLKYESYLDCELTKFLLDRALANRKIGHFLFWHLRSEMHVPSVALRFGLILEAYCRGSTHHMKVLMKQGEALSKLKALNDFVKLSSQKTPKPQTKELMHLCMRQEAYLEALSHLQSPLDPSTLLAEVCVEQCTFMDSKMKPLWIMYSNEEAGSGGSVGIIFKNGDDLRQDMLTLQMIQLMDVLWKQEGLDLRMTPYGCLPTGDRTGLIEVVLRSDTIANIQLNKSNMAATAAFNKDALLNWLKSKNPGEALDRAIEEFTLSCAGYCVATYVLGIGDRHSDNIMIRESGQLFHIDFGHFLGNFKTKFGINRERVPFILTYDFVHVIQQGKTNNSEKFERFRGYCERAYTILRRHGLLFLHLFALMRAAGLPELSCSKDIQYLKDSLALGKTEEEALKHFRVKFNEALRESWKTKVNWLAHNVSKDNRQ
Sequence of PI3Kδ (P27986 whole entry partner): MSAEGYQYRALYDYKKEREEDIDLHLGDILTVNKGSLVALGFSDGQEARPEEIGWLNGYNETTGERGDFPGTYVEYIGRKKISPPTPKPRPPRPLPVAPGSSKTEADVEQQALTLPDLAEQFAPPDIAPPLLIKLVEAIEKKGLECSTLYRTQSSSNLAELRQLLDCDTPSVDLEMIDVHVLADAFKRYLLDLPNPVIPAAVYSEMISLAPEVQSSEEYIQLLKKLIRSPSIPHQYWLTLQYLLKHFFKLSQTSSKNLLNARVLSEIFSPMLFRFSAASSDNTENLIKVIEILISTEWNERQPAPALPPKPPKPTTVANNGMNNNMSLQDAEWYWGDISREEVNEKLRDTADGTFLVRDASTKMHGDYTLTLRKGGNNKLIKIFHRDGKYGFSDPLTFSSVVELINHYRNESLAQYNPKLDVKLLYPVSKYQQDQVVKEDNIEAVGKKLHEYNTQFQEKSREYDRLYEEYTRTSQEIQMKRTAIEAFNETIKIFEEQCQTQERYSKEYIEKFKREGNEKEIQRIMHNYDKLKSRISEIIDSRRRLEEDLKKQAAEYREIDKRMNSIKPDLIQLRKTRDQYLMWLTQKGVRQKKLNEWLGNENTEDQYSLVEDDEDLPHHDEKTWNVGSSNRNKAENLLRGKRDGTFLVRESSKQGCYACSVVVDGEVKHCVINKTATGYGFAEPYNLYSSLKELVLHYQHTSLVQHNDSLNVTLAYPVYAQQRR
How it was run: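 Luminescent ADP-Glo readout of PI3Kδ: after a 60 min RT reaction with PI/ATP substrate, ATP depletion (40 min) and ADP detection (40 min) steps followed. Compounds tested as eight five-fold serial dilutions; inhibition rates fitted to log(inhibitor) vs. response, variable slope, for IC50.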

[1] = system: NCI-H358 cells (KRAS G12C mutant); experiment: NCI-H358 cell proliferation inhibition (CellTiter-Glo); format: cell-based; settings: Homo sapiens, NCI-H358, 72 h; H358 cells (G12C mutation), 3 days, Table 6; read-out: NCI-H358 (IC50)
[2] = system: MIA PaCa-2-AMGR drug-resistant cell line; experiment: MIA PaCa-2-AMGR drug-resistant cell proliferation inhibitory activity test; format: cell-based; settings: 72 h, MIA PaCa-2-AMGR drug-resistant cells, 3 days incubation, CellTiter-Glo
How it was run: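 MIA PaCa-2 line made resistant by stepwise AMG510 exposure up to 1 μM. Cells seeded at 4×10^3/well overnight, then treated with 8 concentrations (5-fold dilutions) for 3 days at 37° C, 5% CO2 in DMEM with 10% FBS + 2.5% horse serum. Viability by CellTiter-Glo luminescence; IC50 versus no-inhibitor control.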

Sequence of PI3Kα (P42336 whole entry): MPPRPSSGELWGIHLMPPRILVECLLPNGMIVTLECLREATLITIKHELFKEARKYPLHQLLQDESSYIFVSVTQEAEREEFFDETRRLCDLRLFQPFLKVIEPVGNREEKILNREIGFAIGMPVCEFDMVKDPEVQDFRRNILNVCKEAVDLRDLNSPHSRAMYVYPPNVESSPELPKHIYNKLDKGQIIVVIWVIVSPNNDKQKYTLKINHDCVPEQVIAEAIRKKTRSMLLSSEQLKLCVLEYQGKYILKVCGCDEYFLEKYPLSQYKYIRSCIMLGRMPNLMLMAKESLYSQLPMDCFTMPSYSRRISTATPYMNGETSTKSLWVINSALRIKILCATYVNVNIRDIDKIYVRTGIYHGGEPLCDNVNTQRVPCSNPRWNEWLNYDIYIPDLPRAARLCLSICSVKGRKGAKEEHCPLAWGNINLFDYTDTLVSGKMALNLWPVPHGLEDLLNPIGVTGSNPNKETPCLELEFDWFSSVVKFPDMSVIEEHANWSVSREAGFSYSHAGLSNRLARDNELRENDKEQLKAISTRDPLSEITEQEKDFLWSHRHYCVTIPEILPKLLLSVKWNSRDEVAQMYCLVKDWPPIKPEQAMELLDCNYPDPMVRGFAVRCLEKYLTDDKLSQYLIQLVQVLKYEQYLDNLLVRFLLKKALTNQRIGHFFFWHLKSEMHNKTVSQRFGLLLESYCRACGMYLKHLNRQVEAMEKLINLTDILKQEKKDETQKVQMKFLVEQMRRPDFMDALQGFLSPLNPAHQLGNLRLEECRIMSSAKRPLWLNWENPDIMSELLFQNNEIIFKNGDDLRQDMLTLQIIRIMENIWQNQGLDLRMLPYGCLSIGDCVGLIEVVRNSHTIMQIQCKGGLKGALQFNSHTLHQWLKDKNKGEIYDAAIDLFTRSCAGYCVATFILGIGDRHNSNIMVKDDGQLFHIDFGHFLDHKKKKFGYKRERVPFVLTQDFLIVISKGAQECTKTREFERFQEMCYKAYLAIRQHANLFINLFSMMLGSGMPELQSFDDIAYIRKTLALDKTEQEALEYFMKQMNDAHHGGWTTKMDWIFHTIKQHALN
Sequence of PI3Kα (P27986 whole entry partner): as the sequence (P27986 whole entry partner) above

Row | Structure (SMILES) | IC50 (PI3Kα; Table 4) [nM] | IC50 (PI3Kδ; Table 4) [nM] | IC50 [1] [nM] | IC50 [2] [nM] | IC50 (PI3Kα; Table 2) [nM] | IC50 (PI3Kδ; Table 2) [nM] | IC50 (PI3Kα; Table 1) [nM] | IC50 (PI3Kδ; Table 1) [nM]
1 | COc1ncc(-c2ccc3ncnc(C4CCN(C(=O)/C=C/C(C)=O)CC4)c3c2)cc1NS(=O)(=O)c1c(F)cccc1F [Example 205, (E)-2,6-difluoro-N-(2-methoxy-5-(4-(1-(4-oxopent-2-enoyl)piperidin-4-yl)quinazolin-6-yl)pyridin-3-yl) benzenesulfonamide] | 1.3 | 9 | 14.3 | 32.9 |  |  |  | 
2 | COc1ncc(-c2ccc3ncnc(N4CCN(C(=O)/C=C/C(C)=O)CC4)c3c2)cc1NS(=O)(=O)c1ccccc1C [Example 93, (E)-N-(2-methoxy-5-(4-(4-(4-oxopent-2-enoyl)piperazin-1-yl)quinazolin-6-yl)pyridin-3-yl)-2-methylbenzenesulfonamide] |  |  | 18 | 114 | 6 | 72.9 |  | 
3 | COc1ncc(-c2ccc3ncnc(N4CCN(C(=O)/C=C/C(C)=O)CC4)c3c2)cc1NS(=O)(=O)c1ccccc1F [Example 91, (E)-2-fluoro-N-(2-methoxy-5-(4-(4-(4-oxopent-2-enoyl)piperazin-1-yl)quinazolin-6-yl)pyridin-3-yl)benzenesulfonamide] |  |  | 17.8 | 79.8 | 2.6 | 61.5 |  | 
4 | COc1ncc(-c2ccc3ncnc(N4CC5CCC(C4)N5C(=O)/C=C/C(C)=O)c3c2)cc1NS(=O)(=O)c1sc(C)nc1C [Example 176, N-(2-methoxy-5-(4-(8-((E)-4-oxopent-2-enoyl)-3,8-diazabicyclo [3.2.1]octan-3-yl)quinazolin-6-yl)pyridin-3-yl)-2,4-dimethyl-thiazole-5-sulfonamide] | 2.6 | 13.9 | 27 | 48.6 |  |  |  | 
5 | COc1ncc(-c2ccc3ncnc(N4CCN(C(=O)/C=C/C(C)=O)CC4)c3n2)cc1NS(=O)(=O)c1cccc(F)c1F [Example 218, (E)-2,3-difluoro-N-(2-methoxy-5-(4-(4-(4-oxopent-2-enoyl)piperazin-1-yl)pyrido[3,2-d]pyrimidin-6-yl)pyridin-3-yl) benzene-sulfonamide] | 2.6 | 10.8 | 25.6 | 16.1 |  |  |  | 
6 | COc1ncc(-c2ccc3ncnc(C4CCN(C(=O)/C=C/C(C)=O)CC4)c3n2)cc1NS(=O)(=O)c1c(F)cc(F)cc1F [Example 231, (E)-2,4,6-trifluoro-N-(2-methoxy-5-(4-(1-(4-oxopent-2-enoyl)piperidin-4-yl)pyrido[3,2-d]pyrimidin-6-yl)pyridin-3-yl)benzenesulfonamide] | 3.6 | 16.1 | 3.7 | 3.6 |  |  |  | 
7 | COc1ncc(-c2ccc3ncnc(C4=CCN(C(=O)/C=C/C(C)=O)CC4)c3c2)cc1NS(=O)(=O)c1ccccc1F [Example 200, (E)-2-fluoro-N-(2-methoxy-5-(4-(1-(4-oxopent-2-enoyl)-1,2,3,6-tetrahydropyridin-4-yl)quinazolin-6-yl)pyridin-3-yl)benzene-sulfonamide] | 2.3 | 9.7 | 10.9 | 4.3 |  |  |  | 
8 | CCOc1ncc(-c2ccc3ncnc(N4CCN(C(=O)/C=C/C(C)=O)CC4)c3c2)cc1NS(=O)(=O)c1ccc(F)cc1F [Example 109, (E)-N-(2-ethoxy-5-(4-(4-(4-oxopent-2-enoyl)piperazin-1-yl)quinazolin-6-yl)pyridin-3-yl)-2,4-difluorobenzenesulfonamide] |  |  | 63.8 | 111 | 3.5 | 48.9 |  | 
9 | COc1ncc(-c2ccc3ncnc(N4CCN(C5CN(C(=O)/C=C/C(C)=O)C5)CC4)c3c2)cc1NS(=O)(=O)c1ccc(F)cc1F [Example 56, (E)-2,4-difluoro-N-(2-methoxy-5-(4-(4-(1-(4-oxopent-2-enoyl)azetidin-3-yl)piperazin-1-yl)quinazolin-6-yl)pyridin-3-yl)benzenesulfon-amide] |  |  | 69.7 | 116 | 4.4 | 37.2 |  | 
10 | COc1ccc(Cl)c(S(=O)(=O)Nc2cc(-c3ccc4ncnc(N5CCN(C(=O)/C=C/C(C)=O)CC5)c4c3)cnc2OC)c1 [Example 184, (E)-2-chloro-5-methoxy-N-(2-methoxy-5-(4-(4-(4-oxopent-2-enoyl)piperazin-1-yl)quinazolin-6-yl)pyridin-3-yl)benzene-sulfonamide] | 0.81 | 16.2 | 73.8 | 176 |  |  |  | 
11 | COc1ncc(-c2ccc3ncnc(C4=CCN(C(=O)/C=C/C(C)=O)CC4)c3c2)cc1NS(=O)(=O)c1sc(C)nc1C [Example 199, (E)-N-(2-methoxy-5-(4-(1-(4-oxopent-2-enoyl)-1,2,3,6-tetrahydropyridin-4-yl)quinazolin-6-yl)pyridin-3-yl)-2,4-dimethylthiazole-5-sulfonamide] | 1.5 | 12 | 12 | 19.1 |  |  |  | 
12 | COc1ncc(-c2ccc3ncnc(N4CCN(C(=O)/C=C/C(C)=O)C[C@@H]4C)c3c2)cc1NS(=O)(=O)c1ccc(F)cc1Cl [Example 174, (S,E)-2-chloro-4-fluoro-N-(2-methoxy-5-(4-(2-methyl-4-(4-oxopent-2-enoyl)piperazin-1-yl)quinazolin-6-yl)pyridin-3-yl)benzene-sulfonamide] | 3.5 | 17.1 | 15.8 | 26.3 |  |  |  | 
13 | COc1ncc(-c2ccc3ncnc(N4CCN(C(=O)/C=C/C(C)=O)CC4)c3n2)cc1NS(=O)(=O)c1c(Cl)cncc1Cl [Example 224, (E)-3,5-dichloro-N-(2-methoxy-5-(4-(4-(4-oxopent-2-enoyl)piperazin-1-yl)pyrido[3,2-d]pyrimidin-6-yl)pyridin-3-yl) pyridine-4-sulfonamide] | 1.1 | 23.8 | 88.1 | 144 |  |  |  | 
14 | COc1ncc(-c2ccc3ncnc(N4CCN(C(=O)/C=C/C(C)=O)CC4)c3c2)cc1NS(=O)(=O)c1c(F)cccc1C#N [Example 122, (E)-2-cyano-6-fluoro-N-(2-methoxy-5-(4-(4-(4-oxopent-2-enoyl)piperazin-1-yl)quinazolin-6-yl)pyridin-3-yl)benzenesulfonamide] |  |  | 47.9 | 273 | 8.1 | 4.7 |  | 
15 | CCCC(=O)/C=C/C(=O)N1CCN(c2ncnc3ccc(-c4cnc(OC)c(NS(=O)(=O)c5ccc(F)cc5F)c4)cc23)CC1 [Example 17, (E)-2,4-difluoro-N-(2-methoxy-5-(4-(4-(4-oxohept-2-enoyl)piperazin-1-yl)quinazolin-6-yl)pyridin-3-yl)benzenesulfonamide] |  |  | 34.6 | 106 |  |  | 2.3 | 31
16 | COc1ncc(-c2ccc3ncnc(N4CCN(C(=O)/C=C/C(C)=O)CC4)c3c2)cc1NS(=O)(=O)c1sc(C)nc1C [Example 160, (E)-N-(2-methoxy-5-(4-(4-(4-oxopent-2-enoyl)piperazin-1-yl)quinazolin-6-yl)pyridin-3-yl)-2,4-dimethylthiazole-5-sulfonamide] | 2 | 15.2 | 13 | 53.8 |  |  |  | 
17 | COc1ncc(-c2ccc3ncnc(N4CCN(C(=O)/C=C/C(C)=O)CC4)c3c2)cc1NS(C)(=O)=O [Example 170, (E)-N-(2-methoxy-5-(4-(4-(4-oxopent-2-enoyl)piperazin-1-yl)quinazolin-6-yl)pyridin-3-yl)methane-sulfonamide] | 7 | 17 | 61.6 | 183 |  |  |  | 
